Each block holds one compound with its values, some of them ahead of it.
Columns and labels:
[1] = test system: rat models with a hand-foot skin reaction; experiment: rat models with a hand-foot skin reaction; type: in vivo, SD rats
Description: After adaptive feeding for one week, SD rats (with a body weight of approximately 200 g) were randomly divided into groups with balanced body weight, with 12 rats in each group. Modeling drugs (including sorafenib, erlotinib, afatinib, and osimertinib) were respectively dissolved in a solution containing 5% of DMSO, 45% of PEG400, and 50% of H2O, and the modeling drugs were diluted to required concentrations and then administered once daily by gavage at doses shown in Table 3. After administration by gavage for 1 hour, 0.05 g of ointments containing different mass proportions of test compounds were evenly applied to left paws of the rats, a blank matrix ointment was applied to right paws of the rats to serve as a self-control, and no ointment was applied to the rats in a blank control group. After drug application, four limbs were continuously immobilized for 2 hours, then wiped with clean water to remove the residual drugs, removed from immobilization, and restored to free movement. The modeling drugs, the blank matrix ointment, and the ointments containing the test compounds were all administered once daily. After continuous administration for 30 days, the rats were euthanized, and paw plantar skin tissues were collected, fixed in 10% neutral formalin, […]. The ointments for the test compounds were prepared by mixing the compounds, white beeswax, white petrolatum, and light liquid paraffin in specific ratios (weight ratios of 3 ointments were respectively 1:18:58:23, 3:18:57:22, and 10:20:40:30). The blank matrix ointment was prepared by mixing white beeswax, white petrolatum, and light liquid paraffin in a specific ratio (weight ratio of 18:60:22).
Tissue staining: After dewaxing and rehydration, the paw plantar skin tissue sections of the above rats were stained in a hematoxylin solution for several minutes, cleaned, and placed in 1% acid alcohol for soaking until the sections faded to light blue-red. After cleaning with running water for 5 minutes, the sections were stained with eosin for 2-3 minutes, cleaned to remove excess dyes, dehydrated, then permeabilized by adding xylene for several minutes, and sealed and fixed with a neutral resin. The stratum corneum was observed under an optical microscope, and the thickness of the epidermal stratum corneum was measured using Dmetrix software.
Immunohistochemical staining: After dewaxing and hydration, the paw plantar skin tissue sections of the above rats were incubated with 3% H2O2 at room temperature for 30 minutes and blocked with 10% goat serum for 30 minutes after antigen retrieval. A KRT1 antibody (Abcam, ab93652) and a Loricrin antibody (Abcam, ab183646) were added dropwise, the sections were incubated overnight at 4°C, and an HRP secondary antibody (ZSGB-BIO, PV-6001) and a DAB kit (ZSG-BIO, ZLI9017) were added for color development. The sections were re-stained with hematoxylin, cleaned, and sealed and fixed with a neutral resin, and the expression amounts of KRT1 and Loricrin were observed under an optical microscope.
An incidence rate calculation method involves a proportion of animals in each group meeting the above criteria for determining successful modeling, that is, incidence rate = (number of successfully modeled rats/total number of rats in the group)*100%. […]

[2] = stability of crystal forms (XRPD, HPLC, color); type: physicochemical; conditions: for Crystal form: XRPD
Description: A 2θ scanning angle of the sample was 3°-40°, a scanning step size was 0.02°, and a scanning time per step was 0.12 s/step. An optical tube voltage and a current were 40 kV and 40 mA, respectively. During sample preparation, an appropriate amount of the sample was placed on a sample tray and flattened with a tool such as a glass slide to ensure a smooth and even surface.
An Agilent 1260 infinityII binary pump was used for solubility and stability testing.
The stability of samples under these conditions was detected by XRPD and HPLC, and whether the samples had color changes was observed.
(§1) A certain amount of the crystal form C of the compound of formula (I) was weighed and placed in an open container at 25°C/92.5%RH for 1 week. A certain amount of the crystal form C of the compound of formula (I) was weighed and placed in a closed container at 60°C for 1 week. The stability of samples under these conditions was detected by XRPD and HPLC, and whether the samples had color changes was observed. Table 16 Stability test results of the crystal form C of the compound of formula (I)
as §1, with “form D” for “form C”, “Table 17” for “Table 16”
as §1, with “form E” for “form C”, “Table 18” for “Table 16”

[3] = hygroscopicity by dynamic vapor sorption (DVS); type: physicochemical; conditions: for 1st adsorption Percentage of weight change / 1st desorption Percentage of weight change / 2nd adsorption Percentage of weight change / 2nd desorption Percentage of weight change: 40-0-95-0-40%RH, 240 min per step
Description: ProUmid SPSx-1µ Advance was used for analysis of a sample. The sample to be tested was approximately in an amount of 5-50 mg. A temperature in a test chamber was controlled at 25±1°C, a relative humidity cycle was […], a step size was 10%, an equilibrium time was 240 minutes per step, and mass data was recorded every 20 seconds.
A DVS cycle was 40-0-95-0-40%RH. XRPD detection was performed on samples after the DVS testing to determine whether crystal form transformation occurred.

[4] = modeling drug alone by gavage once daily 30 days (Sorafenib 100, Erlotinib 70, Afatinib 50, Osimertinib 60 mg/kg), no test compound

- successful modeling rates for the hand-foot skin reaction ([1]; SD rats, once daily by gavage: sorafenib 100, erlotinib 70, afatinib 50, osimertinib 60 mg/kg): 66.7%
- KRT1 and Loricrin in tissues ([1]; immunohistochemical staining, successfully modeled rats, modeling drug alone): significantly increased
SMILES: CN(C)C/C=C/C(=O)Nc1cc2c(Nc3ccc(F)c(Cl)c3)ncnc2cc1O[C@H]1CCOC1 [Afatinib, afatinib, reference compound]
- Incidence rate Left paw [1, 4]: 8/12 (66.7%)
- Incidence rate Right paw [1, 4]: 8/12 (66.7%)
- stratum corneum thickness of the paw plantar skin ([1]; successfully modeled rats, modeling drug alone, vs normal rats): significantly higher than that of normal rats

SMILES: NC(=O)[C@H]1CCCc2c1[nH]c1ccc(Cl)cc21 [Crystal form C, (S)-6-chloro-2,3,4,9-tetrahydro-1H-carbazole-carboxamide]
- Color ([2]; 25°C/92.5%RH, open, 1 week): No change
- Degradation (%) ([2]; 25°C/92.5%RH, open, 1 week): 0.6%
- Purity (%) ([2]; 25°C/92.5%RH, open, 1 week): 99.1%
- Color ([2]; 60°C, closed, 1 week): Changed
- Degradation (%) ([2]; 60°C, closed, 1 week): 0.1%
- Purity (%) ([2]; 60°C, closed, 1 week): 99.6%
- Purity (%) ([2]; Initial): 99.7%

SMILES: NC(=O)[C@H]1CCCc2c1[nH]c1ccc(Cl)cc21 [Crystal form A, (S)-6-chloro-2,3,4,9-tetrahydro-1H-carbazole-carboxamide]
- Hygroscopicity Conclusion ([3]; DVS at 25°C, Table 15): Slight hygroscopicity
- 1st adsorption Percentage of weight change ([3]; Relative humidity 0% at 25°C): 0.3%
- 1st desorption Percentage of weight change ([3]; Relative humidity 0% at 25°C): 0.3%
- 2nd adsorption Percentage of weight change ([3]; Relative humidity 0% at 25°C): 0.2%
- 2nd desorption Percentage of weight change ([3]; Relative humidity 0% at 25°C): 0.2%
- 1st adsorption Percentage of weight change ([3]; Relative humidity 10% at 25°C): 0.1%
- 1st desorption Percentage of weight change ([3]; Relative humidity 10% at 25°C): 0.3%
- 2nd adsorption Percentage of weight change ([3]; Relative humidity 10% at 25°C): 0.3%
- 2nd desorption Percentage of weight change ([3]; Relative humidity 10% at 25°C): 0.3%
- 1st adsorption Percentage of weight change ([3]; Relative humidity 20% at 25°C): 0.3%
- 1st desorption Percentage of weight change ([3]; Relative humidity 20% at 25°C): 0.1%
- 2nd adsorption Percentage of weight change ([3]; Relative humidity 20% at 25°C): 0.3%
- 2nd desorption Percentage of weight change ([3]; Relative humidity 20% at 25°C): 0.2%
- 1st adsorption Percentage of weight change ([3]; Relative humidity 30% at 25°C): 0.3%
- 1st desorption Percentage of weight change ([3]; Relative humidity 30% at 25°C): 0.1%
- 2nd adsorption Percentage of weight change ([3]; Relative humidity 30% at 25°C): 0.1%
- 2nd desorption Percentage of weight change ([3]; Relative humidity 30% at 25°C): 0.3%
- 1st adsorption Percentage of weight change ([3]; Relative humidity 40% at 25°C): 0.1%
- 1st desorption Percentage of weight change ([3]; Relative humidity 40% at 25°C): 0.3%
- 2nd adsorption Percentage of weight change ([3]; Relative humidity 40% at 25°C): 0.3%
- 2nd desorption Percentage of weight change ([3]; Relative humidity 40% at 25°C): 0.4%
- 1st adsorption Percentage of weight change ([3]; Relative humidity 50% at 25°C): 0.0%
- 2nd desorption Percentage of weight change ([3]; Relative humidity 50% at 25°C): 0.1%
- 1st adsorption Percentage of weight change ([3]; Relative humidity 60% at 25°C): 0.4%
- 2nd desorption Percentage of weight change ([3]; Relative humidity 60% at 25°C): 0.4%
- 1st adsorption Percentage of weight change ([3]; Relative humidity 70% at 25°C): 0.4%
- 2nd desorption Percentage of weight change ([3]; Relative humidity 70% at 25°C): 0.4%
- 1st adsorption Percentage of weight change ([3]; Relative humidity 80% at 25°C): 0.5%
- 2nd desorption Percentage of weight change ([3]; Relative humidity 80% at 25°C): 0.2%
- 1st adsorption Percentage of weight change ([3]; Relative humidity 90% at 25°C): 0.5%
- 2nd desorption Percentage of weight change ([3]; Relative humidity 90% at 25°C): 0.6%
- 1st adsorption Percentage of weight change ([3]; Relative humidity 95% at 25°C): 0.7%
- 2nd desorption Percentage of weight change ([3]; Relative humidity 95% at 25°C): 0.7%
- XRPD after DVS testing ([3]; after DVS cycle 40-0-95-0-40%RH at 25°C): Crystal form A
- water absorption ([3]; from 40% to 95%RH, 25°C): 0.6%
- Color ([2]; 25°C/92.5%RH, open, 1 week): No change
- Degradation (%) ([2]; 25°C/92.5%RH, open, 1 week): None
- Purity (%) ([2]; 25°C/92.5%RH, open, 1 week): 99.8%
- Color ([2]; 60°C, closed, 1 week): No change
- Degradation (%) ([2]; 60°C, closed, 1 week): None
- Purity (%) ([2]; 60°C, closed, 1 week): 99.8%
- Purity (%) ([2]; Initial): 99.8%

- KRT1 and Loricrin in tissues ([1]; rat, in vivo): significantly increased
SMILES: C#Cc1cccc(Nc2ncnc3cc(OCCOC)c(OCCOC)cc23)c1 [Erlotinib, erlotinib, reference compound]
- stratum corneum thickness of the paw plantar skin ([1]; rat, in vivo): significantly higher than that of normal rats

SMILES: NC(=O)[C@H]1CCCc2c1[nH]c1ccc(Cl)cc21 [Crystal form D, (S)-6-chloro-2,3,4,9-tetrahydro-1H-carbazole-carboxamide]
- Color ([2]; 25°C/92.5%RH, open, 1 week): No change
- Degradation (%) ([2]; 25°C/92.5%RH, open, 1 week): 0.6%
- Purity (%) ([2]; 25°C/92.5%RH, open, 1 week): 99.2%
- Degradation (%) ([2]; 25°C/92.5%RH, open, 1 week, listed as crystal form D): 0.6%
- Color ([2]; 60°C, closed, 1 week): Changed
- Degradation (%) ([2]; 60°C, closed, 1 week): 1.1%
- Purity (%) ([2]; 60°C, closed, 1 week): 98.7%
- Crystal form ([2]; 60°C, closed, 1 week): D+F
- Degradation (%) ([2]; 60°C, closed, 1 week, listed as crystal form D): 1.1%
- Purity (%) ([2]; Initial): 99.8%

SMILES: NC(=O)[C@H]1CCCc2c1[nH]c1ccc(Cl)cc21 [Crystal form E, (S)-6-chloro-2,3,4,9-tetrahydro-1H-carbazole-carboxamide]
- Color ([2]; 25°C/92.5%RH, open, 1 week): No change
- Degradation (%) ([2]; 25°C/92.5%RH, open, 1 week): 0.2%
- Purity (%) ([2]; 25°C/92.5%RH, open, 1 week): 99.2%
- Degradation (%) ([2]; 25°C/92.5%RH, open, 1 week, listed as crystal form E): 0.2%
- Color ([2]; 60°C, closed, 1 week): Changed
- Degradation (%) ([2]; 60°C, closed, 1 week): 3.0%
- Purity (%) ([2]; 60°C, closed, 1 week): 96.4%
- Crystal form ([2]; 60°C, closed, 1 week): E+F
- Degradation (%) ([2]; 60°C, closed, 1 week, listed as crystal form E): 3.0%
- Purity (%) ([2]; Initial): 99.4%

— patent EP4782431A1 (Suzhou Merna Therapeutics Co. Ltd, priority 2023, dated 2025)
